The text below walks through data of paper PMC6274483, “Novel Selective and Potent EGFR Inhibitor that Overcomes T790M-Mediated Resistance in Non-Small Cell Lung Cancer” (Molecules, 2016).

One series has as its system H1299 cells. Description: CCK-8 cell viability, H1299. The series is classed as cell-based. Conditions: Homo sapiens, NCI-H1299, H1299 (wild-type), read-out: Cellular Antiproliferative Activity (IC50, μM) H1299. The method, then: (§1) All the cell viability assays were performed according to the CCK-8 method. The cells were seeded at a density of 5 to 8 × 10^4 cells/mL in 96-well plates in growth medium supplemented with 10% serum at 37 °C with 5% CO2 for one day. After 12 h of incubation, 100 μL of medium was removed, and 100 μL of sample solution with different concentrations of inhibitor was added and then the cells were incubated for 48 or 72 h. Subsequently, 10 μL of CCK-8 reagent (Biotool Company, Kirchberg, Switzerland, 5.0 mg/mL) dissolved in phosphate-buffered saline (PBS) was added and the cells were incubated for another 4 h. The absorbance was read at 450 nm with a microplate reader (Thermo Fisher Scientific, Waltham, MA, USA). The data were calculated using GraphPad Prim version 5.0.

Series [1] concerns H1975 cells. Description: Cell apoptosis, Annexin V-FITC/PI flow cytometry, H1975. The class given is cell-based, human. Conditions: 48 h. The method, then:
The H1975 and A431 cells (1 to 5 × 10^5 cells/well) incubated in 6-well plates were treated by different concentrations of inhibitors for 48 h. Then, they were collected and fixed with 70% ethanol at 4 °C overnight. After beening fixed with […], the cells were stained with Annexin V-FITC (5 μL)/propidium iodide (5 μL) and analyzed by flow cytometry assay (Becton-Dickinson, Franklin Lakes, NJ, USA).

Series [2] deals with A431 cells. The experiment in a line: Cell cycle analysis, PI flow cytometry, A431. The series is classed as cell-based, human. Conditions: 48 h. The protocol: (§2) The H1975 and A431 cells at a density of approximately 2 × 10^5 cells/well were incubated in 6-well plates, treated with different concentrations of inhibitors for 48 h, collected and fixed with 70% ethanol at 4 °C overnight. After fixation, the cells were washed with PBS and stained with propidium iodide (PI) for 10 min under subdued light. Stained cells were analyzed by flow cytometry assay (Becton-Dickinson, Franklin Lakes, NJ, USA).
(In general: In flow cytometry, cells or beads pass a laser one at a time.)

The nature of series [3]: In vivo blood sugar test (rat oral glucose tolerance). Conditions: healthy male SD rats, 50 mg/kg (HBr form), up to 12 h. The protocol:
The Roche Accu-chek® Go blood meter was used for the determination of glucose concentration. Before testing, standard set-up of blood meter was performed according to the instrument’s specifications. […] Water was allowed ad libitum throughout the study. Rats were orally given compound DY3002 (50 mg/kg) and a vehicle. For the oral study, the compounds were formulated as a solution (Solutol HS15: NS = 30:70, v:v). Sampling occurred prior to dosing and at 7–9 different time points up to 12 h. Concentration of glucose in the blood was determined by blood meter.

Series [4] relates to H1975 cells. Description: CCK-8 cell viability, H1975. The class given is cell-based. Conditions: Homo sapiens, NCI-H1975, H1975 (EGFR T790M), read-out: Cellular Antiproliferative Activity (IC50, μM) H1975. The method, then: as §1
A further series concerns LO-2 cells. Description: CCK-8 cell viability, LO-2 normal liver cells. The series is classed as cell-based. Conditions: Homo sapiens, L02, LO-2 normal liver cell line, read-out: Cellular Antiproliferative Activity (IC50, μM) LO-2. The protocol:
as §1

Series [5] relates to A431 cells. The experiment in a line: Cell apoptosis, Annexin V-FITC/PI flow cytometry, A431. Conditions: 48 h. The class given is cell-based, human.
In series [6] the test system is H1975 cells. Description: Cell cycle analysis, PI flow cytometry, H1975. The series is classed as cell-based, human. Conditions: H1975, 200 nM, 48 h, cell cycle phase. The protocol:
as §2

The subject of a further series is LoVo cells. The experiment in a line: CCK-8 cell viability, LoVo. The class given is cell-based. Conditions: Homo sapiens, CCK-8, read-out: Cellular Antiproliferative Activity (IC50, μM) LoVo. The method, then:
as §1

Series [7] has as its system H1975 cells. Description: AO/EB and DAPI staining, H1975. The class given is cell-based, human. Conditions: H1975, AO/EB or DAPI staining, 48 h. The method, then: (§3) Approximately 2 × 10^5 cells/well of A431 and H1975 cells in 6-well plates were incubated in an incubator for 48 h, then treated with different concentrations of inhibitors for 48 h. After incubation, the cells were washed with PBS twice. Then, total of 20 μL of the solution containing the AO/EB dye mix (1.0 μg/mL of AO and 1.0 μg/mL of EB in PBS) was added to the cells. The apoptotic, necrotic, and live cells were observed and counted under the fluorescent microscope (OLYMPUS, Tokyo, Japan). DAPI staining was performed after being treated as mentioned above. The cells plated in 6-well plates were washed twice with PBS and fixed with 10% formaldehyde for 10 min, then washed with PBS three times. Cells were subsequently incubated in DAPI (1.0 μg/mL) solution at room temperature for 10 min, washed with PBS and examined under a fluorescence microscope (OLYMPUS).

Series [8] concerns A431 cells. Description: AO/EB and DAPI staining, A431. The class given is cell-based, human. Conditions: A431, AO/EB or DAPI staining, 48 h. The method, then: as §3
In series [9] the test system is A431 cells. The experiment in a line: CCK-8 cell viability, A431. The class given is cell-based. Conditions: Homo sapiens, A-431; A431 (wild-type), CCK-8; read-out: Cellular Antiproliferative Activity (IC50, μM) A431. The protocol:
as §1

Series [10] deals with H1975 cells. The experiment in a line: Wound healing and transwell assays, H1975. The series is classed as cell-based, human. The protocol:
The cancer cells were cultured in 6-well plates for 48 h at 37 °C. Wounds were created in the cell monolayer and washed with PBS to remove cell debris, then the cells were treated with different concentrations of inhibitor for 48 h. After that, the dead cells were washed away with PBS, and the images were taken by the fluorescence microscope (OLYMPUS).
Cell migration assay was evaluated by using Boyden chambers containing a transwell membrane filter with an 8 μm size pore (Corning Costa Corp, Cambridge, MA, USA). Prior to the invasion assay, the filter membrane was coated with 60 μL of Matrigel (BD Biosciences, Billerica, MA, USA) at a 1:8 dilution and rehydrated by adding […] serum-free medium to the apical side of the chamber at 37 °C for 0.5 h. The cells (2 × 10^5 cells/well for invasion assay) were seeded to the apical side of the chamber with 200 μL medium with different concentrations of inhibitors, and the basolateral side of the chamber was filled with 600 μL medium containing 10% FBS. After 24 h at 37 °C, the cells adherent to the upper surface of the filter were swept by cotton swabs, then fixed with methanol, stained with crystal violet, and the cells were counted under a microscope in five random fields, irrespective of staining intensity. The images were taken by the fluorescence microscope (OLYMPUS).

A further series deals with HBE cells. The experiment in a line: CCK-8 cell viability, HBE normal bronchial cells. The class given is cell-based. Conditions: HBE normal human bronchial cell line, read-out: Cellular Antiproliferative Activity (IC50, μM) HBE. The protocol: as §1

“Also recorded” adds a separate entry of the source. Where only a bound is given, the exact number is not on record here.

In general, IC50 refers to the concentration that inhibits the measured activity by half.

On to `C=CC(=O)Nc1cccc(Nc2nc(Nc3ccc(CN4CCOCC4)cc3)ncc2Cl)c1` [DY3002, N-(3-((5-chloro-2-(4-((1-morpholino)methyl)phenylamino)-4-pyrimidinyl)amino)phenyl)acrylamide], for which the IC50 in the series on H1299 cells is 4.12 µM; in the series on H1975 cells [4], 0.037 µM; with LO-2 cells it was 4.24 µM; with LoVo cells, 2.46 µM; in the series with A431 cells [9] it was 0.382 µM; with HBE cells, over 40 µM. The “Apoptosis rate (%)” value in the series on H1975 cells [1] (H1975, 100 nM) is on record as 25.7%; in the series with H1975 cells [1] (H1975, 200 nM), 72.0%; with H1975 cells [1] (H1975, 400 nM) it was 90.1%; with A431 cells [5] (A431, 0.5 μM), 46.1%; with A431 cells [5] (A431, 1 μM), 50.8%; in the series with A431 cells [5] (A431, 2 μM), 61.6%. For the same compound, the G0/G1 in the series on A431 cells [2] (A431, 2 μM, cell cycle phase) is on record as 75.87%; with H1975 cells [6], 91.33%. Moreover, the cell-cycle arrest entry in the series on A431 cells [2] (A431, 0.5, 1 and 2 μM) is reported as “G0/G1 arrest”. In addition, in series [3], the “hyperglycemia (blood glucose concentration versus control group)” value is on record as “did not result in hyperglycemia; also recorded: did not yield hyperglycemia; also recorded: no hyperglycemia side effects”. Also, in the series with H1975 cells [6], the S was 5.67%. Moreover, the apoptotic morphology entry was “striking nuclear condensation, membrane blebbing, nuclear fragmentation, and apoptotic bodies” with H1975 cells [7]; “striking nuclear condensation, membrane blebbing, nuclear fragmentation, and apoptotic bodies” in the series with A431 cells [8]. Besides, the “inhibition of cell migration” value in the series with H1975 cells [10] is “strongly inhibit migration”.
